Assay results as given in ChEMBL document CHEMBL1201862, “PubChem BioAssay data set” (2004).
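Test compounds were applied to cells in 96-well plates for 48 hours at 5 doses. GI50 is the concentration that inhibits growth by half.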 The source made the active and inactive calls. Rule as the data show it: active = GI50 up to about 1.1 µM and inactive = higher.

Columns and labels:
Test in all cases: DTP human tumour cell line panel, 48 h
786-0 = system: 786-0
A549 = system: A549
ACHN = system: ACHN
CAKI-1 = system: CAKI-1
CCRF-CEM = system: CCRF-CEM
COLO 205 = system: COLO 205
DLD-1 = system: DLD-1
DMS-114 = system: DMS-114
DMS-273 = system: DMS-273
EKVX = system: EKVX
HCC 2998 = system: HCC 2998
HCT-116 = system: HCT-116
HCT-15 = system: HCT-15
HL-60 = system: HL-60
HOP-18 = system: HOP-18
HOP-62 = system: HOP-62
HOP-92 = system: HOP-92
HT-29 = system: HT-29
IGROV-1 = system: IGROV-1
K562 = system: K562
KM-20L2 = system: KM-20L2
KM12 = system: KM12
LOX IMVI = system: LOX IMVI
LXFL 529 = system: LXFL 529
M14 = system: M14
M19-MEL = system: M19-MEL
MOLT-4 = system: MOLT-4
Malme-3M = system: Malme-3M
NCI-H226 = system: NCI-H226
NCI-H23 = system: NCI-H23
NCI-H460 = system: NCI-H460
OVCAR-3 = system: OVCAR-3
OVCAR-4 = system: OVCAR-4
OVCAR-5 = system: OVCAR-5
OVCAR-8 = system: OVCAR-8
RXF 393 = system: RXF 393
RXF 631 = system: RXF 631
SF-268 = system: SF-268
SF-295 = system: SF-295
SF-539 = system: SF-539
SK-MEL-28 = system: SK-MEL-28
SK-MEL-2 = system: SK-MEL-2
SK-MEL-5 = system: SK-MEL-5
SK-OV-3 = system: SK-OV-3
SN12C = system: SN12C
SNB-19 = system: SNB-19
SNB-78 = system: SNB-78
SR = system: SR
SW-620 = system: SW-620
TK-10 = system: TK-10
U-251 = system: U-251
UACC-257 = system: UACC-257
UACC-62 = system: UACC-62
UO-31 = system: UO-31
A498 = system: A498
NCI-H522 = system: NCI-H522
RPMI-8226 = system: RPMI-8226
SNB-75 = system: SNB-75
XF498 = system: XF498

## NC1=NN(c2ccccc2)C(=O)C1C(=O)CCC(=O)Nc1cccc(C(F)(F)F)c1 (stereo not given)
786-0
  GI50: > 100 µM (inactive)
A549
  GI50: > 100 µM (inactive)
ACHN
  GI50: 23.1 µM (inactive)
CAKI-1
  GI50: > 100 µM (inactive)
CCRF-CEM
  GI50: > 100 µM (inactive)
COLO 205
  GI50: > 100 µM (inactive)
DLD-1
  GI50: 48.8 µM (inactive)
DMS-114
  GI50: > 100 µM (inactive)
DMS-273
  GI50: > 100 µM (inactive)
EKVX
  GI50: > 100 µM (inactive)
HCC 2998
  GI50: > 100 µM (inactive)
HCT-116
  GI50: > 100 µM (inactive)
HCT-15
  GI50: 30.8 µM
HL-60
  GI50: > 100 µM (inactive)
HOP-18
  GI50: > 100 µM (inactive)
HOP-62
  GI50: > 100 µM (inactive)
HOP-92
  GI50: > 100 µM (inactive)
HT-29
  GI50: > 100 µM (inactive)
IGROV-1
  GI50: > 100 µM (inactive)
K562
  GI50: 35.2 µM (inactive)
KM-20L2
  GI50: 72.6 µM (inactive)
KM12
  GI50: > 100 µM (inactive)
LOX IMVI
  GI50: 72.4 µM (inactive)
LXFL 529
  GI50: 36.8 µM (inactive)
M14
  GI50: 41.2 µM (inactive)
M19-MEL
  GI50: > 100 µM (inactive)
MOLT-4
  GI50: > 100 µM (inactive)
Malme-3M
  GI50: > 100 µM (inactive)
NCI-H226
  GI50: > 100 µM (inactive)
NCI-H23
  GI50: > 100 µM (inactive)
NCI-H460
  GI50: > 100 µM (inactive)
OVCAR-3
  GI50: > 100 µM (inactive)
OVCAR-4
  GI50: > 100 µM (inactive)
OVCAR-5
  GI50: > 100 µM (inactive)
OVCAR-8
  GI50: > 100 µM (inactive)
RXF 393
  GI50: > 100 µM (inactive)
RXF 631
  GI50: > 100 µM (inactive)
SF-268
  GI50: > 100 µM (inactive)
SF-295
  GI50: > 100 µM (inactive)
SF-539
  GI50: > 100 µM (inactive)
SK-MEL-28
  GI50: > 100 µM (inactive)
SK-MEL-2
  GI50: > 100 µM (inactive)
SK-MEL-5
  GI50: > 100 µM (inactive)
SK-OV-3
  GI50: > 100 µM (inactive)
SN12C
  GI50: > 100 µM (inactive)
SNB-19
  GI50: > 100 µM (inactive)
SNB-78
  GI50: > 100 µM (inactive)
SR
  GI50: > 100 µM (inactive)
SW-620
  GI50: 42.6 µM (inactive)
TK-10
  GI50: > 100 µM (inactive)
U-251
  GI50: > 100 µM (inactive)
UACC-257
  GI50: > 100 µM (inactive)
UACC-62
  GI50: 53 µM (inactive)
UO-31
  GI50: > 100 µM (inactive)

## Cc1ccc(C2CC(c3ccc([N+](=O)[O-])cc3)=Nc3ccccc3S2)cc1 (stereo not given)
786-0
  GI50: 14.6 µM (inactive)
A498
  GI50: 16.3 µM (inactive)
A549
  GI50: 22.3 µM (inactive)
ACHN
  GI50: 27.6 µM (inactive)
CAKI-1
  GI50: 31 µM (inactive)
CCRF-CEM
  GI50: 12.9 µM (inactive)
COLO 205
  GI50: 41.8 µM (inactive)
DLD-1
  GI50: 25.5 µM (inactive)
DMS-114
  GI50: 16.5 µM (inactive)
EKVX
  GI50: 42.6 µM (inactive)
HCC 2998
  GI50: 20.3 µM (inactive)
HCT-15
  GI50: 18 µM
HL-60
  GI50: 19.8 µM (inactive)
HOP-18
  GI50: 48.4 µM (inactive)
HOP-62
  GI50: 61.5 µM (inactive)
HT-29
  GI50: 26.6 µM (inactive)
IGROV-1
  GI50: 23.4 µM (inactive)
K562
  GI50: 13.4 µM (inactive)
KM-20L2
  GI50: 34.3 µM (inactive)
KM12
  GI50: 18.4 µM (inactive)
LOX IMVI
  GI50: 15.3 µM (inactive)
LXFL 529
  GI50: 12.1 µM (inactive)
M14
  GI50: 28.3 µM (inactive)
M19-MEL
  GI50: 18.6 µM (inactive)
MOLT-4
  GI50: 15.1 µM (inactive)
Malme-3M
  GI50: 50.8 µM (inactive)
NCI-H226
  GI50: 44.6 µM (inactive)
NCI-H23
  GI50: 19.5 µM (inactive)
NCI-H460
  GI50: 36.9 µM (inactive)
NCI-H522
  GI50: 20.1 µM (inactive)
OVCAR-3
  GI50: 24.7 µM (inactive)
OVCAR-4
  GI50: 23.7 µM (inactive)
OVCAR-5
  GI50: 44.5 µM (inactive)
OVCAR-8
  GI50: 22.5 µM (inactive)
RPMI-8226
  GI50: 15.6 µM (inactive)
RXF 393
  GI50: 12.1 µM (inactive)
RXF 631
  GI50: 24.5 µM (inactive)
SF-268
  GI50: 24.4 µM (inactive)
SF-295
  GI50: 27.4 µM (inactive)
SF-539
  GI50: 26.2 µM (inactive)
SK-MEL-28
  GI50: 29 µM (inactive)
SK-MEL-2
  GI50: 30.3 µM (inactive)
SK-MEL-5
  GI50: 17.1 µM (inactive)
SK-OV-3
  GI50: 89.9 µM (inactive)
SN12C
  GI50: 25.5 µM (inactive)
SNB-19
  GI50: 23 µM (inactive)
SNB-75
  GI50: 21.4 µM (inactive)
SW-620
  GI50: 20 µM (inactive)
TK-10
  GI50: 34.8 µM (inactive)
UACC-257
  GI50: 28.6 µM (inactive)
UACC-62
  GI50: 32.8 µM (inactive)
UO-31
  GI50: 18.9 µM (inactive)
XF498
  GI50: 19 µM (inactive)

## c1ccc(-c2ccnc3c2ccc2c(-c4ccccc4)ccnc23)cc1
786-0
  GI50: 2.64 µM (inactive)
A498
  GI50: 2.53 µM (inactive)
A549
  GI50: 0.875 µM (active)
ACHN
  GI50: 1.11 µM (active)
CCRF-CEM
  GI50: 0.465 µM (active)
COLO 205
  GI50: 2.98 µM (inactive)
DLD-1
  GI50: 2.47 µM (inactive)
DMS-114
  GI50: 0.382 µM (active)
DMS-273
  GI50: 2.56 µM (inactive)
EKVX
  GI50: 0.664 µM (active)
HCT-116
  GI50: 0.555 µM (active)
HCT-15
  GI50: 1.06 µM
HL-60
  GI50: 0.809 µM (active)
HOP-18
  GI50: 2.34 µM (inactive)
HOP-62
  GI50: 1.89 µM (inactive)
HT-29
  GI50: 1.18 µM (inactive)
IGROV-1
  GI50: 0.931 µM (active)
K562
  GI50: 0.621 µM (active)
KM-20L2
  GI50: 3.73 µM (inactive)
KM12
  GI50: 0.628 µM (active)
LOX IMVI
  GI50: 2.31 µM (inactive)
LXFL 529
  GI50: 0.71 µM (active)
M14
  GI50: 3.37 µM (inactive)
M19-MEL
  GI50: 1.74 µM (inactive)
MOLT-4
  GI50: 0.514 µM (active)
Malme-3M
  GI50: 4.06 µM (inactive)
NCI-H226
  GI50: 1.65 µM (inactive)
NCI-H23
  GI50: 1.85 µM (inactive)
NCI-H460
  GI50: 2.39 µM (inactive)
NCI-H522
  GI50: 1.46 µM (inactive)
OVCAR-3
  GI50: 2.47 µM (inactive)
OVCAR-4
  GI50: 2.28 µM (inactive)
OVCAR-5
  GI50: 1.04 µM (active)
OVCAR-8
  GI50: 1.48 µM (inactive)
RXF 393
  GI50: 1.83 µM (inactive)
RXF 631
  GI50: 0.604 µM (active)
SF-268
  GI50: 3.12 µM (inactive)
SF-539
  GI50: 2.06 µM (inactive)
SK-MEL-28
  GI50: 4.57 µM (inactive)
SK-MEL-2
  GI50: 3.37 µM (inactive)
SK-MEL-5
  GI50: 0.736 µM (active)
SK-OV-3
  GI50: 2.65 µM (inactive)
SN12C
  GI50: 2.26 µM (inactive)
SNB-19
  GI50: 1.19 µM (inactive)
SNB-75
  GI50: 2.92 µM (inactive)
SNB-78
  GI50: 5.05 µM (inactive)
SR
  GI50: 0.273 µM (active)
SW-620
  GI50: 3.72 µM (inactive)
TK-10
  GI50: 0.279 µM (active)
U-251
  GI50: 1.17 µM (inactive)
UACC-257
  GI50: 2.28 µM (inactive)
UACC-62
  GI50: 0.418 µM (active)
UO-31
  GI50: 0.5 µM (active)
